The source of these data is ChEMBL document CHEMBL1201862, “PubChem BioAssay data set” (2004).

Active and inactive are the calls of the source.

The target of assay [1] is Serine/threonine-protein phosphatase PP1-alpha catalytic subunit (Homo sapiens, UniProt P62136). In words: inhibition of protein phosphatase 1 activity – biochemical, fluorescence, dose response (AID 2394).
Another assay deals with CHO. The assay can be described thus: CHO cell viability loss, potency – luminescence, cytotoxicity control for TLR9-MyD88 binding inhibitor project, dose response (AID 588339).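 Note: CHO cells stably coexpressing TLR9 and MyD88 fusions from primary screen; compound exposure lasted 48 hours before viability readout.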 The assay is classed as functional, cell-based, hamster. The settings on record: Cricetulus griseus.
In another assay the target is T1, Bcl-2-related protein A1 (Mus musculus, UniProt Q07440).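 Note: confirmatory dose–response counterscreen on Bfl-1, used to check hits from a UBC13 polyubiquitin inhibitor campaign.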
T1 sequence (Q07440 whole entry): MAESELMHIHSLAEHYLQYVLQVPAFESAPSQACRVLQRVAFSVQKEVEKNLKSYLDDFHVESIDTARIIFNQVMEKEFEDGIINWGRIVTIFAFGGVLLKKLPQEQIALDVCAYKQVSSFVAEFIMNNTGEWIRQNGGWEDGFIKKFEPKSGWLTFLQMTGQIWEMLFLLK
The assay is classed as functional.

In a further assay the target is T2, Orexin receptor type 2 (Homo sapiens, UniProt O43614).
T2 sequence (O43614 whole entry): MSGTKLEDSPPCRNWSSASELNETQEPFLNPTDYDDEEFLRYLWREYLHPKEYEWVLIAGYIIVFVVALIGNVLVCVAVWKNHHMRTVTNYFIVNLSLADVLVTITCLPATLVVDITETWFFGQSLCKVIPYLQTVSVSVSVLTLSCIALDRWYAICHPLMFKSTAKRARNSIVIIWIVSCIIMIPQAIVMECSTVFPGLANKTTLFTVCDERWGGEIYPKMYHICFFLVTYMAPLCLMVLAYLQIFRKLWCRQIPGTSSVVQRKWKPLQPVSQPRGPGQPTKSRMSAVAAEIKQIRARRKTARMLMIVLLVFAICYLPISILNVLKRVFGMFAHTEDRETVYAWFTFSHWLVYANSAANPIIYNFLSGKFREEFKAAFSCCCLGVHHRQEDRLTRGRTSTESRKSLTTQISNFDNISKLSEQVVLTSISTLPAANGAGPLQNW
The assay can be described thus: Counterscreen assay for antagonists of the orexin 1 receptor (OX1R; HCRTR1): Homogeneous Time Resolved Fluorescence (HTRF)-based cell-based dose response assay for antagonists of the orexin 2 receptor (OX2R; HCRTR2), run by assay provider. The assay is classed as functional.

The next assay is described as follows: cells. It counts as functional, cell-based.
Assay [2] in a line: loss of viability in HepG2 cells – cell-based, CellTiter-Glo, cherry-picked, cytotoxicity control for Shn3 inhibitor project, dose response (AID 624134). The assay is classed as functional.
Assay [3] can be described thus: Counterscreen for AddAB inhibitors: absorbance-based bacterial cell-based high throughput dose response assay for inhibitors of bacterial viability. [Related pubchem assays (depositor defined):AID435030, AID449728, AID449731, AID488942, AID488955, AID488956]. It counts as functional.
A further assay relates to Vero. In words: cells. Conditions: Chlorocebus sabaeus. It counts as functional, cell-based.
In assay [4] the target is T3, Neuropeptide Y receptor type 2 (Homo sapiens, UniProt P49146).
T3 sequence (P49146 whole entry): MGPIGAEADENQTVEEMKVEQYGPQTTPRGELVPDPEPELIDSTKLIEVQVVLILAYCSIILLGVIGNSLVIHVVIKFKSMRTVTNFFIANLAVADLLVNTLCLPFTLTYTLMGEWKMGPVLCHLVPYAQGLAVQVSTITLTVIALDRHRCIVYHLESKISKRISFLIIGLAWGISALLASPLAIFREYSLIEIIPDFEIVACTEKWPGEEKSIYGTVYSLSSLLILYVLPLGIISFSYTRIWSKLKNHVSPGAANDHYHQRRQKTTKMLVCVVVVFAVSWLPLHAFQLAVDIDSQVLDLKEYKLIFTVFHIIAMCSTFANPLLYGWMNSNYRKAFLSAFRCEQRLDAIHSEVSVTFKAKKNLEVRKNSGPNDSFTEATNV
In words: Fluorescence-based cell-based high-throughput dose response assay for agonists of NPY-Y2. [Related pubchem assays: 1703 (Screening assay (CNGC inhibitors).), 1359 (Screening assay (NPY-Y2 potentiators or agonists).), 1304 (Screening assay (NPY-Y1 potentiators or agonists).), 1710 (Screening assay (NPY-Y2 agonists).), 1791 (Summary AID.)]. It counts as functional.

In assay [5] the target is T4, Neuropeptide Y receptor type 1 (Homo sapiens, UniProt P25929).
T4 sequence (P25929 whole entry): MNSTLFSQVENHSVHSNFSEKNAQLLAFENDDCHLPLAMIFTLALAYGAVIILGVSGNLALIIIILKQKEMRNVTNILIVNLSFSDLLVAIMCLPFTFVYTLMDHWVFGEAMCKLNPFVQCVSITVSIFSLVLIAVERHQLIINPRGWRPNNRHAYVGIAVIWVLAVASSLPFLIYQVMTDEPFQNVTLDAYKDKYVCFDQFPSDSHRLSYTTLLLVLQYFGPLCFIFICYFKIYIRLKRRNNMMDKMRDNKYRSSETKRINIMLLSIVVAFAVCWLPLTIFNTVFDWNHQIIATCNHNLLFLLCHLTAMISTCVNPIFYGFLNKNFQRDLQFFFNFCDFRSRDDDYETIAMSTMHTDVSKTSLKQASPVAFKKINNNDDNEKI
The assay can be described thus: Fluorescence-based counterscreen for agonists of NPY-Y2: cell-based high-throughput dose response assay for agonists of NPY-Y1. It counts as functional.

The target of a further assay is T5, Streptokinase A (Streptococcus pyogenes serotype M1, UniProt P10520).
T5 sequence (P10520 whole entry): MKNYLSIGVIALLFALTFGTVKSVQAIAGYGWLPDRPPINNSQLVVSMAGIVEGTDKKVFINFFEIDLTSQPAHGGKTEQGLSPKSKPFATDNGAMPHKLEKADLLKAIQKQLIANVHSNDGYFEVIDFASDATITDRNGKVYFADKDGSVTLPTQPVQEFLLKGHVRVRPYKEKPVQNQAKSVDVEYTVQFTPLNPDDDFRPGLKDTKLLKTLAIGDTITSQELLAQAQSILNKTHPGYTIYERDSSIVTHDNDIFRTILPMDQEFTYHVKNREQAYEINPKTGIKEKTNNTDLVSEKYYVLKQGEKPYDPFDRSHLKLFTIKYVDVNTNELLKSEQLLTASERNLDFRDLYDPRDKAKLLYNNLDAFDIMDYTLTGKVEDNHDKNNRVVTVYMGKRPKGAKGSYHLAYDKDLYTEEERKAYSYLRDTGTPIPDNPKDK
The assay can be described thus: viability-normalized secreted streptokinase activity reduction – plasminogen activation absorbance, OD405, dose response (AID 1914).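 Note: secreted streptokinase activity via plasminogen activation per viability signal from cell pellet.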 The assay is classed as functional, Streptococcus pyogenes M1 GAS.

Assay [6] is described as follows: rise of 2N DNA cells, HeLa – IC50, dose response (AID 1117349). The assay is classed as functional, cell-based.

Chain of Serine/threonine-protein phosphatase PP1-alpha catalytic subunit (P62136 whole entry, the tested form may be a part): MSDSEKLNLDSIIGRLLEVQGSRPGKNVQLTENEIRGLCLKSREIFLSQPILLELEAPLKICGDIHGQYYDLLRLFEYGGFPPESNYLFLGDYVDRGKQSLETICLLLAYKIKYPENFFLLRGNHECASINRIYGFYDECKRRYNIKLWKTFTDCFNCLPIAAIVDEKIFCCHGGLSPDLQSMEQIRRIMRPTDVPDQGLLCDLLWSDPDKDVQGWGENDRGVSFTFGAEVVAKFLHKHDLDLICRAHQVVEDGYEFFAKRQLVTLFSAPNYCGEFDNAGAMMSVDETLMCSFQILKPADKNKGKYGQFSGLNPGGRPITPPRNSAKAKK

Consider `N#Cc1c(N2CCCCC2)nc(N)c2c(N)nc(SCC(=O)O)cc12`, for which the IC50 in assay [1] was 44.1 µM (not active).
Consider `O=[N+]([O-])c1ccc(Sc2cccc[n+]2[O-])c2nonc12`, for which the IC50 in the assay with CHO is 0.448 µM (active).
As for `Oc1ccc(NC(=S)N=Nc2c(O)[nH]c3ccccc23)cc1`, the IC50 is > 20 µM (inactive) on Bcl-2-related protein A1 and > 50 µM (inactive) on Orexin receptor type 2.
Turning to `CCCC(=O)NC(c1ccc(C(C)C)cc1)c1ccc2cccnc2c1O` (configuration not stated), the EC50 in “cells” was 3.8 µM (active). Moreover, in [2], the AC50 was 1.91 µM (active). For the same compound, the IC50 in assay [3] is > 119 µM (inactive); in the assay with Vero, > 25 µM (active).
In the case of `Oc1c(Cl)cc(Cl)c(Cl)c1Cc1c(O)c(Cl)cc(Cl)c1Cl` [HEXACHLOROPHENE], the EC50 in [4] was > 11.8 µM (not active); in assay [5] it was 9.8 µM (active); at Streptokinase A, > 150 µM (not active). Also, the IC50 in [6] was > 10 µM (inactive).
